Among the data in patent publication US6620820B2, “Inhibitors of bone reabsorption and antagonists of vitronectin receptors” (Hoechst Aktiengesellschaft, priority 1996, dated 2003) are IC50 values, retold here.

The term IC50 denotes the concentration that inhibits the measured activity by half.

T1 sequence (P06756 31-889 limits assumed): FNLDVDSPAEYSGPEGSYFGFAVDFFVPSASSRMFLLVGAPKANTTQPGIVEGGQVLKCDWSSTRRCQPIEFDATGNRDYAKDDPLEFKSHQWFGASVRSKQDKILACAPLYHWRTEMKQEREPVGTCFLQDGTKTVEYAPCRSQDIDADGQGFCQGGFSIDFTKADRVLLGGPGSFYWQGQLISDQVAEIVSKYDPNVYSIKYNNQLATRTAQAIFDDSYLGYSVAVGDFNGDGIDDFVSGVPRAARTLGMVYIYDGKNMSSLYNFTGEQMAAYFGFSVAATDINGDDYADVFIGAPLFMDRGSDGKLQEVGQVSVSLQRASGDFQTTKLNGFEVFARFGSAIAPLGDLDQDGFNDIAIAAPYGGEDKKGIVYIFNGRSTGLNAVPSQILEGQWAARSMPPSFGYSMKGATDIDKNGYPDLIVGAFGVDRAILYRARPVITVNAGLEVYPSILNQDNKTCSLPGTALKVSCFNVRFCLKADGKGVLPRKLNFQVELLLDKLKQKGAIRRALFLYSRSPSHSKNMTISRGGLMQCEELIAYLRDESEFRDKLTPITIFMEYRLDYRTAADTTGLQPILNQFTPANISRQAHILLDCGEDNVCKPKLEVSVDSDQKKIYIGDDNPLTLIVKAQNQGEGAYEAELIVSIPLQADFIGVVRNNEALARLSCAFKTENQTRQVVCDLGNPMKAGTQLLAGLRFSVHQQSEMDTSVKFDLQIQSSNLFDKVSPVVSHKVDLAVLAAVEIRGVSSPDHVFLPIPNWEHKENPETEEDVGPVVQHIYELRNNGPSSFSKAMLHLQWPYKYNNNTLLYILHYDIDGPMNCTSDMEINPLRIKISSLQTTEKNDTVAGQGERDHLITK
T1 sequence (P06756 891-1048 partner limits assumed): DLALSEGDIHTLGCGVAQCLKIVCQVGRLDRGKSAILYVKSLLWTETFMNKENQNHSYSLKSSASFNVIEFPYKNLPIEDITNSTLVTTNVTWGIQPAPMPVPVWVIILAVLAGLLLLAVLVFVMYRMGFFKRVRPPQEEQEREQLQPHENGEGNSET
T1 sequence (P05106 27-788): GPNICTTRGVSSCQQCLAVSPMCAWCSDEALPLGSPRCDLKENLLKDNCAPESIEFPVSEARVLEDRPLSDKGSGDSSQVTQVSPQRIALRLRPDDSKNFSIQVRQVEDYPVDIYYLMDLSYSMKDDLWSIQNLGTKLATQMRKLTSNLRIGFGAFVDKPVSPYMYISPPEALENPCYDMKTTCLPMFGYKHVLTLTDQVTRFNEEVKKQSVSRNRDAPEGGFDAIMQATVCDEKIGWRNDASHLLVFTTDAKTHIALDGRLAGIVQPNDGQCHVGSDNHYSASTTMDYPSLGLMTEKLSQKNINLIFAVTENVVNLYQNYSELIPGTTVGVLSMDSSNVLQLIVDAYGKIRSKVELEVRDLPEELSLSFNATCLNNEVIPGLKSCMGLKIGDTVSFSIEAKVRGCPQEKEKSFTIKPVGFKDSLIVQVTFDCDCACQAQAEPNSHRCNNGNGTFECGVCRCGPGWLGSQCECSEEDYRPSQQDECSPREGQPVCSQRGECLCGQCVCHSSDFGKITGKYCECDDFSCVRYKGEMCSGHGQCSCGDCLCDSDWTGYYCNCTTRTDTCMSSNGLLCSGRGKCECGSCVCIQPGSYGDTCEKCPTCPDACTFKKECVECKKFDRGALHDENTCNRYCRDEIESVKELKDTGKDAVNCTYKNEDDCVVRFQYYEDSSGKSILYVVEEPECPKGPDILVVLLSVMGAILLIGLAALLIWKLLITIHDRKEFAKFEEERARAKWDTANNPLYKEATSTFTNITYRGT

The first test addresses T1, human vitronectin receptor (VnR) αVβ3 (Homo sapiens, UniProt P05106+P06756).
T1 construct: Human vitronectin receptor is isolated from the human placenta using the method of Pytela et al; from tissue; host or cells: human placenta (alternatively 293 cells cotransfected with αV and β3 DNA)
As to the kind of experiment: Inhibition of the binding of human vitronectin (Vn) to human vitronectin receptor (VnR) αVβ3: ELISA test (Vn/VnR). To be noted: plates coated with human vitronectin, test method 1. The source says:
Inhibition of the binding of human vitronectin (Vn) to human vitronectin receptor (VnR) αVβ3: ELISA-Test.
(In the listing of the test results, test method 1 is abbreviated to Vn/VnR)
1. Purification of human vitronectin
Human vitronectin is isolated from human plasma and purified by affinity chromatography using the method of Yatohyo et al., Cell Structure and Function, 1988, 23, 281-292.
2. Purification of human vitronectin receptor (αVβ3)
Human vitronectin receptor is isolated from the human placenta using the method of Pytela et al., Methods Enzymol. 1987, 144, 475. Human vitronectin receptor αVβ3 can also be isolated from some cell lines (for example from 293 cells, a human embryonic kidney cell line) which are cotransfected with DNA sequences for the two subunits, αV and β3, of the vitronectin receptor. The subunits are extracted with octylglycoside and subsequently chromatographed on concanavalin A, heparin-Sepharose and S-300. […]
Nunc Maxisorb 96-well microtiter plates are coated, at 4° C. overnight, with a solution of human vitronectin (0.002 mg/ml, 0.05 ml/well) in PBS (phosphate-buffered sodium chloride solution). […] The absorption of each well is measured at 492-405 nm and the data are evaluated using standard methods.
Background: ELISA stands for enzyme-linked immunosorbent assay.
As to `O=C(CN1C(=O)N[C@@H](CCCNC2=NCCN2)C1=O)NC[C@H](NC(=O)OCc1ccccc1)C(=O)O` [Example 1, (2S)-Benzoylcarbonylamino-3-[2-((4S)-(3-(4,5dihydro-1H-imidazol-2-ylamino)propyl)-2,5-dioxoimidazolidin-1-yl)acetylamino]propionic Acid], the IC50 was 8 nM.

The target of another test is T1, human vitronectin receptor (VnR) αVβ3. As to the kind of experiment: Inhibition of the binding of Kistrin to human vitronectin receptor (VnR) αVβ3: ELISA test (Kistrin/VnR). The settings on record: plates coated with Kistrin, test method 2. The procedure:
Nunc Maxisorb 96-well microtiter plates are coated, at 4° C. overnight, with a solution of human vitronectin (0.002 mg/ml, 0.05 ml/well) in PBS (phosphate-buffered sodium chloride solution). The plates are washed twice with PBS/0.05% Tween 20 and blocked by incubating them (for 60 min) with bovine serum albumin (BSA, 0.5%, RIA grade or better) in tris-HCl (50 mM), NaCl (100 mM), MgCl2 (1 mM), CaCl2 (1 mM), MnCl2 (1 mM), pH 7. Solutions of known inhibitors and of the test substances, in concentrations of 2×10^−12−2×10^−6 mol/l, are prepared in assay buffer [BSA (0.5%, RIA grade or better) in tris-HCl (50 mM/l), NaCl (100 mM), MgCl2 (1 mM), CaCl2 (1 mM), MnCl2 (1 mM), pH 7]. The blocked plates are emptied and in each case 0.025 ml of this solution, which contains a defined concentration (from 2×10^−12 to 2×10^−6) of either a known inhibitor or a test substance, is added to each well. 0.025 ml of a solution of the vitronectin receptor in the test buffer (0.03 mg/ml) is pipetted into each well of the plate and the plate is then incubated at room temperature on a shaker for 60-180 min. In the meantime, a solution (6 ml/plate) of a murine monoclonal antibody which is specific for the β3 subunit of the vitronectin receptor is prepared in the assay buffer (0.0015 mg/ml). A second rabbit antibody, which represents an anti-mouse Fc HRP antibody conjugate, is added to this solution (0.001 ml of stock solution/6 ml of the murine mono-clonal anti-β3 antibody solution) and this mixture of the murine anti-β3 antibody and the rabbit anti-mouse Fc HRP antibody conjugate is allowed to incubate while the receptor/inhibitor incubation is in progress. The test plates are washed 4 times with PBS solution containing 0.05% Tween-20 and 0.05 ml of the antibody mixture is in each case pipetted into each well of the plate, which is then incubated for 60-180 min. The plate is washed 4 times with PBS/0.05% Tween-20 and then developed with 0.05 ml/well of a PBS solution which contains 0.67 mg/ml o-phenylenediamine and 0.012% H2O2. Alternatively, o-phenylenediamine can be used in a buffer (pH 5) which contains Na3PO4 (50 mM) and citric acid (0.22 mM). The color development is stopped with 1N H2SO4 (0.05 ml/well). The absorption of each well is measured at 492-405 nm and the data are evaluated using standard methods.
Inhibition of the binding of Kistrin to human vitronectin receptor (VnR) αVβ3: ELISA test
(In the listing of the test results, test method 2 is abbreviated to Kistrin/VnR)
1. Purification of Kistrin
Kistrin is purified using the methods of Dennis et al., as described in Proc. Natl. Acad. Sci. USA 1989, 87, 2471-2475 and PROTEINS: Structure, Function and Genetics 1993, 15, 312-321.
2. Purification of human vitronectin receptor (αVβ3) see test method 1.
3. Monoclonal antibodies see test method 1.
The ability of substances to inhibit the binding of Kistrin to the vitronectin receptor can be elucidated using an ELISA test. For this purpose, Nunc 96-well microtiter plates are coated with a solution of Kistrin (0.002 mg/ml) in accordance with the method of Dennis et al., as described in PROTEINS: Structure, Function and Genetics 1993, 15, 312-321. The subsequent experimental implementation of the ELISA test is as described in test method1, item 4.
As for `O=C(CN1C(=O)N[C@@H](CCCNC2=NCCN2)C1=O)NC[C@H](NC(=O)OCc1ccccc1)C(=O)O` [Example 1, (2S)-Benzoylcarbonylamino-3-[2-((4S)-(3-(4,5dihydro-1H-imidazol-2-ylamino)propyl)-2,5-dioxoimidazolidin-1-yl)acetylamino]propionic Acid], the IC50 came out at 20 nM.
Still for that read-out and setting: the same measure for `O=C(CN1C(=O)N[C@@H](CCc2nc3ccccc3[nH]2)C1=O)NC[C@H](NC(=O)OCc1ccccc1)C(=O)O` [Example 18]: 810 nM; for `O=C(CN1C(=O)N[C@@H](CC(=O)NNC2=NCCN2)C1=O)NC[C@H](NC(=O)OCc1ccccc1)C(=O)O` [Example 7, (2S)-Benzyloxycarbonylamino-3-[2-((4S)-(N′-(4,5-dihydro-1H-imidazol-2-yl)-hydrazinocarbonylmethyl]-2,5-dioxoimidazolidin-1-yl)acetylamino]propionic Acid]: 580 nM.
Still for that read-out and setting: the same measure for `O=C(CN1C(=O)N[C@@H](CC(=O)NNC2=NCCCN2)C1=O)NC[C@H](NC(=O)OCc1ccccc1)C(=O)O` [Example 8, (2S)-Benzyloxycarbonylamino-3-[2-(2,5-dioxo-(4S)-(N′-(1,4,5,6-tetrahydro-pyrimidin-2-yl)hydrazinocarbonylmethyl)imidazolidin-1-yl)acetylamino]propionic Acid]: 130 nM; for `O=C(CN1C(=O)N[C@@H](CCCNc2nc3ccccc3[nH]2)C1=O)NC[C@H](NC(=O)OCc1ccccc1)C(=O)O` [Example 5, (2S)-Benzyloxycarbonylamino-3-[((4S)-(3-(benzimidazolyl-2-amino)-propyl)-2,5-dioxoimidazolidin-1-yl)acetylamino]propionic Acid]: 40 nM.
For `N=C(N)NC(=O)CC[C@@H]1NC(=O)N(CC(=O)NC[C@H](NC(=O)OCc2ccccc2)C(=O)O)C1=O` [Example 19, (2S)-Benzyloxycarbonylamino-3-[2-((4S)-(3-guanidino-3-oxopropyl) -2,5-dioxoimidazolidin-1-yl)acetylamino]propionic Acid], the IC50 is 20 nM.
On to `N=C(N)NC(=O)NC[C@@H]1NC(=O)N(CC(=O)NC[C@H](NC(=O)OCc2ccccc2)C(=O)O)C1=O` [Example 3, (2S)-Benzyloxycarbonylamino-3-[((4S)-(guanidinoacylaminomethyl)-2,5-dioxoimidazolidin-1-yl)acetylamino]propionic Acid], for which the IC50 worked out at 360 nM.
On the same count and under the same terms, the result for `O=C(CN1C(=O)N[C@@H](CCCNc2ncccn2)C1=O)NC[C@H](NC(=O)OCc1ccccc1)C(=O)O` [Example 4, (2S)-Benzyloxycarbonylamino-3-[((4S)-(3-(2-pyrimidylamino)propyl)-2,5-dioxoimidazolidin-1-yl)acetylamino]propionic Acid] reads 1660 nM.
